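GI50 marks 50% less growth. TGI is the concentration that stops growth completely.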
Experiments:
Assay in all cases: NCI anticancer screen, dose series, 384-well format
[1] = tested on: HCC-2998 colon
[2] = tested on: MDA-MB-231 breast
[3] = tested on: IGROV1 ovarian
[4] = tested on: A498 renal
[5] = tested on: SR leukemia
[6] = tested on: MCF7 breast
[7] = tested on: SK-OV-3 ovarian
[8] = tested on: MOLT-4 leukemia
[9] = tested on: MDA-MB-435 melanoma
[10] = tested on: KM12 colon
[11] = tested on: RPMI-8226 leukemia
[12] = tested on: NCI-H522 lung
[13] = tested on: BT-549 breast

SMILES: Cc1cc(Nc2cc(N)ncn2)c(=O)n2c1C(=O)NC21CCCCC1
- GI50 [1]: > 100 µM
- TGI [1]: > 100 µM
- GI50 [2]: > 100 µM
- TGI [2]: > 100 µM
- GI50 [3]: > 100 µM
- TGI [3]: > 100 µM
- GI50 [4]: > 100 µM
- TGI [4]: > 100 µM
- GI50 [5]: > 69.7 µM
- TGI [5]: > 100 µM
- GI50 [6]: > 100 µM
- TGI [6]: > 100 µM
- GI50 [7]: > 100 µM
- TGI [7]: > 100 µM
- GI50 [8]: > 100 µM
- TGI [8]: > 100 µM
- GI50 [9]: > 100 µM
- TGI [9]: > 100 µM
- GI50 [10]: > 100 µM
- TGI [10]: > 100 µM
- GI50 [11]: > 62.6 µM
- TGI [11]: > 100 µM
- GI50 [12]: > 100 µM
- TGI [12]: > 100 µM
- GI50 [13]: > 76.9 µM
- TGI [13]: > 100 µM

Reference: PubChem BioAssay (NCI)
